Laboratory results: patent US12264156B2, “Compounds and pharmaceutical compositions thereof for the treatment of diseases” (GALAPAGOS NV, priority 2018, dated 2025)

Key:
[1] = biological target: T1, SIK1 (Homo sapiens, UniProt P57059); experiment: ADP-Glo kinase assay, SIK1; format: biochemical; settings: ADP-Glo SIK kinase assay
T1 construct: purchased Carna Biosciences 02-131
Outline: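 Enzyme–substrate mix was started with ATP and incubated 120 min at RT. ADP formed was quantified by ADP-Glo: 40 min ATP depletion, then 30 min detection reagent converting ADP to ATP for luciferase luminescence, which rises with kinase activity. Controls: 1% DMSO and 10 μM staurosporine (final).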

[2] = tested on: LPS triggered IL-10 secretion in monocyte-derived macrophages (MdM); experiment: MdM assay: LPS-triggered IL-10 (ELISA); format: cell-based, human; settings: LPS 200 ng/mL, supernatant after 2 h, maximal fold change vs LPS only
Method: SIK inhibition inhibits TNFα and increases IL-10 release in LPS triggered monocyte-derived macrophages (MdM) and dendritic […] al. 2012; Sundberg et al. 2014; Ozanne et al. 2015). This assay evaluates illustrative compounds of the invention for their inhibition of LPS-induced TNFα and LPS triggered IL-10 secretion in monocyte-derived macrophages. PBMCs are isolated from human blood samples (buffycoats). The buffy coat is aseptically transferred into a 50 mL Falcon tube, and diluted 1/2 in PBS. Falcon tubes are filled with 20 mL LymphoprepTM, on top of which 25 mL of the buffy coat is carefully added, tubes are centrifuged for 35 min at 400 g in temperature controlled centrifuge, without brake, at 25° C. PBMCs are aspirated from the white interface layer between sample and LymphoprepTM. PBMCs are washed five times in PBS. Cells are resuspended in RPMI 1640 complete medium supplemented with 10% FBS, 1% P/S, and cell density is determined using a hematologic analyzer (Sysmex XS-500i). PBMCs are centrifuged at 300×g for 10 min and resuspended at a density of 1.0*10^7 cells/80 μL Miltenyi buffer (PBS, pH 7.4, 1% FBS, 2 mM EDTA). Starting from this point of the protocol all steps are performed on ice. 20 μL of CD14+ micro-beads are added per 1.0*10^7 cells, the tube is mixed and incubated for 15 min in the fridge at 4° C. Cell suspension volume is adjusted to total volume of 100 mL using Miltenyi buffer, mixed gently and subsequently centrifuged for 10 min at 300×g. Supernantant is discarded and cell pellet is resuspended in 12 mL of Miltenyi buffer. Four LS columns are placed in the MACS Separator (magnet) from Miltenyi Biotec, and are prewet by rinsing with 3 mL of MACS buffer per column. Three mL of cell suspension is added onto the column (max 1*10^8 of labelled cells/column), and columns are subsequently washed 3 times with 3 mL of Miltenyi buffer. The columns are removed from the magnets, and 5 mL of Miltenyi buffer are added to the column to flush out the CD14+ fraction by pushing the plunger into the column. The flushed fractions are collected in a fresh 50 mL Falcon and volume is adjusted to 30 mL using Miltenyi buffer, cells are centrifuged for 10 min at 300×g. The obtained cell pellet is resuspended in 10 mL RPMI w/o FBS, and cell density is determined using a hematologic analyser (Sysmex XS-500i). 100 000 cells are seeded per well of a 96-well plate for differentiation to MdM in RPMI 1640 medium supplemented with 10% FBS, 1% P/S and 100 ng/mL rhM-CSF. On day 5 the medium is refreshed with 100 μL RPMI 1640 medium supplemented with 10% FBS, 1% P/S and 100 ng/mL rhM-CSF. On day 10, MdMs are triggered and compound is added. A compound dilution plate is made in 100% DMSO by 3-fold dilution of 10 mM stock solution. An intermediate dilution plate (10× final concentration) is made by diluting the compound dilution plate 50-fold in RPMI medium. Medium is carefully removed from cell plates using multichannel pipette, and replaced by 80 μL fresh medium. 10 μL of the 10× final concentration compound is added to the cells and incubated for 1 hour at 37° C. before addition of trigger. No trigger conditions/trigger conditions are spiked with equal final DMSO concentrations of 0.2% DMSO. 10 μL of 10×LPS (final conc. 200 ng/mL) solution are added to all wells except for the 'no trigger wells' where 10 μL medium is added. Supernatant is collected after 2 h (IL-10 determination) and after 20 h (TNFα determination) of LPS triggering. […]

T1 sequence (P57059 whole entry): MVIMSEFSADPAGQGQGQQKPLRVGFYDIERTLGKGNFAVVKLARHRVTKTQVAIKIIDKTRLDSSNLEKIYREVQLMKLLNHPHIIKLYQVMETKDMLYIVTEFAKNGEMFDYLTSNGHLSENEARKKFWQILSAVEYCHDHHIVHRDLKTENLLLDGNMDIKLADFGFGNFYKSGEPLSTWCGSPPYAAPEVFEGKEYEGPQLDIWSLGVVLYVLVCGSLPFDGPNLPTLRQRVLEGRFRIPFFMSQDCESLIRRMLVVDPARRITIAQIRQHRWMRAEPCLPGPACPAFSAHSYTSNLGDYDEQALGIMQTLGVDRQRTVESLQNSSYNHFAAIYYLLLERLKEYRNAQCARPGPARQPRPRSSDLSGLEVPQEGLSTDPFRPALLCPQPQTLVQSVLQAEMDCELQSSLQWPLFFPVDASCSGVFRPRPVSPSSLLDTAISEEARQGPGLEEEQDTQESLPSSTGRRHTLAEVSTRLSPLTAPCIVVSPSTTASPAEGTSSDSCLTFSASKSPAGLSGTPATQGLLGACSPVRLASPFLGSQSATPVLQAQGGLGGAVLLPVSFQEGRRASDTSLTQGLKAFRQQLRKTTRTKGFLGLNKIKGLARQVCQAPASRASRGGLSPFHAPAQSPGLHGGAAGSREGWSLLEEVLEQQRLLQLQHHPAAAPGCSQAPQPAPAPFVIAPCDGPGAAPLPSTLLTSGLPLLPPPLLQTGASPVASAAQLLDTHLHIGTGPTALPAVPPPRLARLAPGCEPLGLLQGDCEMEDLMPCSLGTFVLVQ

IC50 [1] [nM]	SMILES	IL-10 FCmax median [2]
> 500	COc1cc(-c2cnc3cc(OC[C@H]4CCCN4C)ccn23)cc2c1C(=O)N(CC(F)(F)F)CC2 [compound 124, 8-methoxy-6-[7-[[(2R)-1-methylpyrrolidin-2-yl]methoxy]imidazo[1,2-a]pyridin-3-yl]-2-(2,2,2-trifluoroethyl)-3,4-dihydroisoquinolin-1-one]	++ (>1.5-4.5)
100 to 500	COc1cc(-c2cnc3cc(OCC4CCO4)ccn23)cc2c1C(=O)N(CC(F)(F)F)CC2 (stereo not shown) [compound 125, 8-methoxy-6-[7-(oxetan-2-ylmethoxy)imidazo[1,2-a]pyridin-3-yl]-2-(2,2,2-trifluoroethyl)-3,4-dihydroisoquinolin-1-one]	++ (>1.5-4.5)
100 to 500	COc1cc(-c2cnc3cc(OCc4cnco4)ccn23)cc2c1C(=O)N(CC(F)(F)F)CC2 [compound 126, 8-methoxy-6-[7-(oxazol-5-ylmethoxy)imidazo[1,2-a]pyridin-3-yl]-2-(2,2,2-trifluoroethyl)-3,4-dihydroisoquinolin-1-one]	+ (≤1.5)
100 to 500	COc1cc(-c2cnc3cc(OCC4CN(C)CCO4)ccn23)cc2c1C(=O)N(CC(F)(F)F)CC2 (stereo not shown) [compound 127, 8-methoxy-6-[7-[(4-methylmorpholin-2-yl)methoxy]imidazo[1,2-a]pyridin-3-yl]-2-(2,2,2-trifluoroethyl)-3,4-dihydroisoquinolin-1-one]	++ (>1.5-4.5)

Continued, compound first:

SMILES	IC50 [1] [nM]	IL-10 FCmax median [2]
CCN1CCCCC1COc1ccn2c(-c3cc(OC)c(C(=O)NC4CC4)c(OC(F)F)c3)cnc2c1 (stereo not shown) [compound 83, N-cyclopropyl-2-(difluoromethoxy)-4-[7-[(1-ethyl-2-piperidyl)methoxy]imidazo [1,2-a]pyridin-3-yl]-6-methoxy-benzamide]	100 to 500	++ (>1.5-4.5)
COc1cc(-c2cnc3cc(OCC(C)(C)N)ccn23)cc(OC(F)F)c1C(=O)NC1CC1 [compound 104, 4-[7-(2-amino-2-methyl-propoxy)imidazo[1,2-a]pyridin-3-yl]-N-cyclopropyl-2-(difluoromethoxy)-6-methoxy-benzamide]	100 to 500	+ (≤1.5)
CCN(CC)CCOc1ccn2c(-c3cc(OC)c(C(=O)NC4CC4)c(OC(F)F)c3)cnc2c1 [compound 107, N-cyclopropyl-4-[7-[2-(diethylamino)ethoxy]imidazo[1,2-a]pyridin-3-yl]-2-(difluoromethoxy)-6-methoxy-benzamide]	100 to 500	+ (≤1.5)
COc1cc(-c2cnc3cc(OC[C@H]4CCCCN4C)ccn23)cc(OC(F)F)c1C(=O)NC1CC1 [compound 111, N-cyclopropyl-2-(difluoromethoxy)-6-methoxy-4-[7-[[(2R)-1-methyl-2-piperidyl]methoxy]imidazo[1,2-a]pyridin-3-yl]benzamide]	100 to 500	++ (>1.5-4.5)
CNCCOc1ccn2c(-c3cc(OC)c(C(=O)NC4CC4)c(OC(F)F)c3)cnc2c1 [compound 117, N-cyclopropyl-2-(difluoromethoxy)-6-methoxy-4-[7-[2-(methylamino)ethoxy]imidazo[1,2-a]pyridin-3-yl]benzamide]	10 to 100	++ (>1.5-4.5)
COc1cc(-c2cnc3cc(OCCN)ccn23)cc(OC(F)F)c1C(=O)NC1CC1 [compound 118, 4-[7-(2-aminoethoxy)imidazo[1,2-a]pyridin-3-yl]-N-cyclopropyl-2-(difluoromethoxy)-6-methoxy-benzamide]	10 to 100	++ (>1.5-4.5)
COc1cc(-c2cnc3cc(OCCN4CCCC4)ccn23)cc2c1C(=O)N(CC(F)(F)F)CC2 [compound 123, 8-methoxy-6-[7-(2-pyrrolidin-1-ylethoxy)imidazo[1,2-a]pyridin-3-yl]-2-(2,2,2-trifluoroethyl)-3,4-dihydroisoquinolin-1-one]	> 500	++ (>1.5-4.5)
